Consider 14 molecules from patent publication US11613542B2, “Sulfonylureas and sulfonylthioureas as NLRP3 inhibitors” (Inflazome Limited, priority 2017, dated 2023).

For data set [1], the target named is T1, NLRP3 (Homo sapiens, UniProt Q96P20). In words: Human whole blood IL1β release assay. Also noted: Human whole blood in Li-heparin tubes was obtained from healthy donors; from tissue; host or cells: human whole blood from healthy donors, LPS-primed, nigericin-stimulated. The data set is classed as cell-based. The essentials:
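Healthy-donor human whole blood (Li-heparin) primed with 1 μg/ml LPS, with compound (8-point half-log, 10 μM top) or 0.1% DMSO for 3 h at 37 °C, then 10 μM nigericin (final) for 1 h. Supernatant IL-1β read by AlphaLISA; IC50 from 4-parameter variable-slope fit.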

The target of data set [2] is T1, NLRP3. In words: THP-1 cells pyroptosis assay. The data set is classed as cell-based. Further details: Seed THP-1 cells (25,000 cells/well) containing 1.0 μg/ml LPS; host or cells: THP-1 cells, LPS-primed, nigericin-stimulated. In a few lines: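 THP-1 cells (25,000/well) in serum-free RPMI with 1.0 μg/ml LPS, treated with compound (8-point half-log dilution, 10 μM top, 0.1% DMSO), then nigericin 5 μM final. Viability read by resazurin (100 μM final, 1-2 h, 37° C) fluorescence Ex 560/Em 590 nm; IC50 from 4-parameter variable-slope fit.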

Data set [3] is described as follows: Pharmacokinetic parameters in male Sprague Dawley rats (intravenous and oral administration). The conditions noted are these: dose per compound (mg/kg); for bioavailability: rat. The class given is in vivo. As to the method:
Pharmacokinetic parameters were determined in male Sprague Dawley rats (Charles River, UK, 250-350 g; or Vital River Laboratory Animal Technology Co Ltd, Beijing, China, 7-9 weeks old). Animals were individually housed during the study and maintained under a 12 h light/dark cycle. Animals had free access to food and water except that some orally dosed animals were food deprived overnight prior to the study.
For intravenous administration, compounds were formulated as a solution in water or DMSO:PBS [10:90] in 2 mL/kg dosing volume and administered via tail vein. For oral administration, compounds were formulated as a solution in water or DMSO:water [10:90] in 5 mL/kg dosing volume and administered orally.
Serial blood samples (about 120-300 μL) were taken from each animal at each of 8 time-points post dose (0.083, 0.25, 0.5, 1, 2, 4, 8 and 24 h) or at each of 12 time-points post dose (0.03, 0.1, 0.17, 0.25, 0.5, 1, 2, 4, 6, 8,12 and 24 h) or pre-dose and at each of 9 time-points post dose (0.25, 0.5, 1, 2, 4, 6, 8, 12 and 24 h). Samples were held on ice for no longer than 30 minutes before centrifugation (10,000 rpm (8,385 g) for 3 minutes; or 5,696 rpm (3,000 g) for 15 minutes) for plasma generation. Plasma was frozen on dry ice prior to bioanalysis. PK parameters were generated from LC-MS/MS data using Dotmatics or Phoenix WinNonlin 6.3 software.

Where [4] appears, read: human whole blood, 1 μg/ml LPS, compound 3 hrs, nigericin 10 μM 1 hr, IL-1β AlphaLisa, read-out: HWB IC50.
The mark [5] stands for this setting: THP-1 cells, 1.0 μg/ml LPS, compound 3 hrs, nigericin 5 μM 1 hr, resazurin readout, read-out: THP IC50.
[6] abbreviates: intravenous administration, rat plasma.
The mark [7] stands for this setting: oral administration, rat plasma.
[8] abbreviates: male, Sprague Dawley, intravenous administration, rat plasma.

pIC50: −log10 of the molar value. Counter-ions that a name gives are not always drawn. Like-named read-outs stand apart in the source and are kept apart here. Where only a bound is given, the exact number is not on record here.

T1 sequence (Q96P20 whole entry): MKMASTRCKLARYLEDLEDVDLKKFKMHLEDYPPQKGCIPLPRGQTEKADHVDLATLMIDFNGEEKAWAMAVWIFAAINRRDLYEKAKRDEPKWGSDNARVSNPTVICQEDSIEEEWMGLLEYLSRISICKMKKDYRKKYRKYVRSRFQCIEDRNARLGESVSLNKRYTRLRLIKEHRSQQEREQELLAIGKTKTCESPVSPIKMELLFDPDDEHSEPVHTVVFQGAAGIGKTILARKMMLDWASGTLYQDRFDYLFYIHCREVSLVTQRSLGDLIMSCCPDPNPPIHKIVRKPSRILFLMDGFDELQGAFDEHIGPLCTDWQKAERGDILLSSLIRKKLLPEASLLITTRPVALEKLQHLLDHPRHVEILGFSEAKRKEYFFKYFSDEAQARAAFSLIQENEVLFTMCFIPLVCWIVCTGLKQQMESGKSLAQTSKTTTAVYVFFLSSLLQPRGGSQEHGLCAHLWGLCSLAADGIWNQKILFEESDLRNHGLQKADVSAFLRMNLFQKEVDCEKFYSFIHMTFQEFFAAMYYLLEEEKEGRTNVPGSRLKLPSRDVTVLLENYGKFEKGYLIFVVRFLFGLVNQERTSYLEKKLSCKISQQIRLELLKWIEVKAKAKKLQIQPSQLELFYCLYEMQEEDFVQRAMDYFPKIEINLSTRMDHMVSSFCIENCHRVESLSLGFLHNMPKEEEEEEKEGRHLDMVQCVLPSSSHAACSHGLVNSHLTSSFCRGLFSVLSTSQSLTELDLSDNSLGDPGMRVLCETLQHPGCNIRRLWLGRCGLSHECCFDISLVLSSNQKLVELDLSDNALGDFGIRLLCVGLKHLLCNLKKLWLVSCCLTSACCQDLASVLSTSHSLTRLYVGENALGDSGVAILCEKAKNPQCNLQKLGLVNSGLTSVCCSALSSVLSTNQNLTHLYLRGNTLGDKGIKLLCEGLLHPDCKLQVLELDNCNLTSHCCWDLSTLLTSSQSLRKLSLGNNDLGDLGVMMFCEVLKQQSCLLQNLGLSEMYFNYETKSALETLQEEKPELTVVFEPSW

In general, pIC50 refers to the IC50 on a negative log10 scale, so that one unit is a factor of ten. In general, AUC refers to concentration integrated over time. By Cmax is commonly meant the highest concentration seen after dosing. The Tmax is the time at which the peak concentration occurs. On to `CC(C)c1cc(F)cc(C(C)C)c1NC(=O)NS(=O)(=O)c1cc(C(=O)N(C)C)n(C)n1` [Example 160, 3-(N-((4-Fluoro-2,6-diisopropylphenyl)carbamoyl)sulfamoyl)-N,N,1-trimethyl-1H-pyrazole-5-carboxamide, sodium salt], for which the pIC50 at NLRP3 [1] (setting [4]) is over 6.40. For the same molecule, the pIC50 at NLRP3 [2] (setting [5]) is over 6.19. For the same molecule, in data set [3] (setting [6]), the AUC came to 283.3 ng·h/mL, the Cl was found to be 59.2 mL/min/kg, the T1/2 was 3.3 h and the Vdss came to 4.08 L/kg. In data set [3] (setting [7]), this molecule showed an AUC of 769.7 ng·h/mL, a Cl/F of 109.8 mL/min/kg, a Cmax of 494.7 ng/mL and a T1/2 of 9.7 h. In addition, the time of peak concentration (Tmax) in data set [3] (setting [7]) was determined as 10.2 min. Moreover, the bioavailability in data set [3] (oral administration) was determined as 54.3.
With `CC(C)c1cc(F)cc(C(C)C)c1NC(=O)NS(=O)(=O)c1cc(C(=O)N2CCC2)n(C)n1` [Example 145, 5-(azetidine-1-carbonyl)-N-((4-fluoro-2,6-diisopropylphenyl)carbamoyl)-1-methyl-1H-pyrazole-3-sulfonamide, sodium salt], the pIC50 at NLRP3 [1] (setting [4]) is over 6.40. Moreover, the negative logarithm of the IC50 (pIC50) on NLRP3 [2] (setting [5]) is over 6.80. In data set [3] (setting [6]), this molecule came in with an AUC of 415.0 ng·h/mL, a Cl of 40.3 mL/min/kg, a T1/2 of 6.4 h and a Vdss of 7.96 L/kg.
Take `CC(C)c1cccc(C(C)C)c1NC(=O)NS(=O)(=O)c1cc(C(=O)N(C)C)n(C)n1` [Example 167, 3-(N-((2,6-Diisopropylphenyl)carbamoyl)sulfamoyl)-N,N,1-trimethyl-1H-pyrazole-5-carboxamide, sodium salt]: the pIC50 on NLRP3 [1] (setting [4]) is over 6.40. In addition, on NLRP3 [2] (setting [5]), the pIC50 was over 6.19. Moreover, in data set [3] (setting [6]), the exposure (AUC) amounted to 333.7 ng·h/mL, the Cl is 48.7 mL/min/kg, the T1/2 is 0.5 h and the Vdss was found to be 0.99 L/kg.
Turning to `CN(CCO)C(=O)c1cc(S(=O)(=O)NC(=O)Nc2c3c(cc4c2CCC4)CCC3)nn1C` [Example 176, 3-(N-((1,2,3,5,6,7-Hexahydro-s-indacen-4-yl)carbamoyl)sulfamoyl)-N-(2-hydroxyethyl)-N,1-dimethyl-1H-pyrazole-5-carboxamide, partial ammonium salt], the negative logarithm of the IC50 (pIC50) on NLRP3 [1] (setting [4]) is over 6.40. In addition, the pIC50 on NLRP3 [2] (setting [5]) was over 6.80. For the same molecule, in data set [3] (setting [6]), the AUC was 786.6 ng·h/mL, the Cl was 114.1 mL/min/kg, the T1/2 is 0.3 h and the Vdss came out at 2.37 L/kg.
What is called half-life is the time needed for the level to fall by half in the phase considered. A high value points to slow loss. `CN1CC[C@H]1Cn1ccc(S(=O)(=O)NC(=O)Nc2c3c(cc4c2CCC4)CCC3)n1` [Example 20, (S)—N-((1,2,3,5,6,7-Hexahydro-s-indacen-4-yl)carbamoyl)-1-((1-methylazetidin-2-yl)methyl)-1H-pyrazole-3-sulfonamide]: the pIC50 at NLRP3 [1] (setting [4]) is over 6.40. The pIC50 on NLRP3 [2] (setting [5]) is over 6.80. In data set [3] (setting [8]), the clearance amounted to 2.4 mL/min/kg and the half-life is 174 min. Besides, the exposure (AUC) in data set [3] (male, Sprague Dawley, intravenous administration, rat plasma, read-out: AUC) was found to be 11300 ng·h/mL. In addition, the Vd in data set [3] (male, Sprague Dawley, intravenous administration, rat plasma, read-out: Vdss) stood at 0.32 L/kg.
On to `CN(C)C(=O)c1cc(S(=O)(=O)NC(=O)Nc2c3c(cc4c2CCC4)CCC3)nn1C` [Example 169, 3-(N-((1,2,3,5,6,7-Hexahydro-s-indacen-4-yl)carbamoyl)sulfamoyl)-N,N,1-trimethyl-1H-pyrazole-5-carboxamide, sodium salt], for which the pIC50 at NLRP3 [1] (setting [4]) is over 6.40. Besides, the negative-log IC50 (pIC50) at NLRP3 [2] (setting [5]) is over 6.80. In data set [3] (setting [6]), this molecule came in with an exposure (AUC) of 3389.9 ng·h/mL, a Cl of 24.8 mL/min/kg, a T1/2 of 25.3 h and a Vdss of 17.78 L/kg. Also, in data set [3] (setting [7]), the exposure (AUC) is 1052.0 ng·h/mL, the Cl/F is given as 49.5 mL/min/kg, the Cmax is 599.6 ng/mL and the T1/2 was 3.4 h. In data set [3] (setting [7]), the time to peak (Tmax) stood at 15 min. The molecule also displayed a bioavailability in data set [3] (oral administration) of 62.0.
Regarding `CCN(C)C(=O)c1cc(S(=O)(=O)NC(=O)Nc2c3c(cc4c2CCC4)CCC3)nn1C` [Example 162, N-Ethyl-3-(N-((1,2,3,5,6,7-hexahydro-s-indacen-4-yl)carbamoyl)sulfamoyl)-N,1-dimethyl-1H-pyrazole-5-carboxamide], the pIC50 at NLRP3 [1] (setting [4]) is over 6.10. Besides, the negative-log IC50 (pIC50) at NLRP3 [2] (setting [5]) was over 6.80. In data set [3] (setting [6]), the exposure (AUC) worked out at 1723.1 ng·h/mL, the Cl came out at 25.0 mL/min/kg, the T1/2 turned out to be 0.1 h and the Vdss is reported as 0.24 L/kg.
Take `CC(C)c1cc(Cl)cc(C(C)C)c1NC(=O)NS(=O)(=O)c1cc(C(=O)N(C)CCO)n(C)n1` [Example 172, 3-(N-((4-Chloro-2,6-diisopropylphenyl)carbamoyl)sulfamoyl)-N-(2-hydroxyethyl)-N,1-dimethyl-1H-pyrazole-5-carboxamide]: the pIC50 was over 5.80 against NLRP3 [1] and over 6.80 at NLRP3 [2].
Turning to `CC(C)n1nc(S(=O)(=O)NC(=O)Nc2c3c(cc4c2CCC4)CCC3)cc1C(=O)N1CCC1` [Example 131, 5-(Azetidine-1-carbonyl)-N-((1,2,3,5,6,7-hexahydro-s-indacen-4-yl)carbamoyl)-1-isopropyl-1H-pyrazole-3-sulfonamide, partial ammonium salt], the negative logarithm of the IC50 (pIC50) on NLRP3 [1] (setting [4]) was over 5.80. On NLRP3 [2] (setting [5]), the pIC50 is over 6.80. For the same molecule, in data set [3] (setting [6]), the AUC amounted to 302.7 ng·h/mL, the Cl is 55.3 mL/min/kg, the T1/2 is 1.6 h and the Vdss was found to be 1.66 L/kg.
Take `CN(C(=O)c1cc(S(=O)(=O)NC(=O)Nc2c3c(cc4c2CCC4)CCC3)nn1C)C1CC1` [Example 152, N-Cyclopropyl-3-(N-((1,2,3,5,6,7-hexahydro-s-indacen-4-yl)carbamoyl)sulfamoyl)-N,1-dimethyl-1H-pyrazole-5-carboxamide]: the pIC50 is over 6.10 at NLRP3 [1] (setting [4]) and over 6.80 on NLRP3 [2] (setting [5]).
Turning to `CC(C)c1cccc(C(C)C)c1NC(=O)NS(=O)(=O)c1cc(C(=O)N2CC(F)C2)n(C)n1` [Example 139, N-((2,6-Diisopropylphenyl)carbamoyl)-5-(3-fluoroazetidine-1-carbonyl)-1-methyl-1H-pyrazole-3-sulfonamide, sodium salt], the pIC50 is over 5.80 at NLRP3 [1] (setting [4]) and over 5.59 on NLRP3 [2] (setting [5]).
In the same order, the values of `CC(C)(C#N)n1ccc(S(=O)(=O)NC(=O)Nc2c(-c3ccnc(OC(F)F)c3)ccc3c2CCO3)n1` [Example 189, 1-(2-Cyanopropan-2-yl)-N-((5-(2-(difluoromethoxy)pyridin-4-yl)-2,3-dihydrobenzofuran-4-yl)carbamoyl)-1H-pyrazole-3-sulfonamide] are over 6.40 and over 6.80.
Consider `CNC(=O)c1cc(S(=O)(=O)NC(=O)Nc2c(C(C)C)cccc2C(C)C)nn1C` [Example 155, 3-(N-((2,6-Diisopropylphenyl)carbamoyl)sulfamoyl)-N,1-dimethyl-1H-pyrazole-5-carboxamide], for which the pIC50 at NLRP3 [1] (setting [4]) was over 6.10; at NLRP3 [2] (setting [5]), over 6.19.
In the same order, the values of `O=C(Nc1c2c(cc3c1CCC3)CCC2)NS(=O)(=O)c1ccn(CCN2CCCC2)n1` [Example 3, N-((1,2,3,5,6,7-Hexahydro-s-indacen-4-yl)carbamoyl)-1-(2-(pyrrolidin-1-yl)ethyl)-1H-pyrazole-3-sulfonamide, sodium salt] are over 5.80 and over 6.19.
